From patent US4395969A (priority 1981, dated 1983)
Where two headings read alike, the source gives them in different places.

Assays:
bridgelip sucker [1] = test system: bridgelip sucker; set-up: species or system Catastomus columbianus; conditions: in vivo
bridgelip sucker [2] = assay: Selectivity and safety indices of salmonids versus the bridgelip sucker; type: in vivo, Catastomus columbianus; conditions: steelhead trout; 24 h
Excerpt: Delineation bioassays determined primarily the LC50 and LC100 of sucker and stickleback and the LC0 and LC50 of salmonids.
The statistical LC1, LC50, and LC99 were interpolated and/or extrapolated using probit graph paper to approximate the LC0, LC50, and LC100 when the latter set of values was not closely determined by single concentrations in a series.
The approximate LC50 and LC100 of the target fishes (threespine and brook sticklebacks and bridgelip and white suckers) are tabulated in Table 1. The 96-hour selectivity and safety indices of selected species of salmonids versus the three-spine stickleback are tabulated in Table 3.
Threespine stickleback, brook stickleback, bridgelip sucker, white sucker, chinook salmon, coho salmon, sockeye salmon, kokanee, Kamloops trout, cutthroat trout, and brook trout were treated with various concentrations of 2, 2, 2, 1-tetrachloroethyl diethyl phosphate and at various temperatures to determine approximate selectivity and safety indices. The approximate LC50 and LC100 of the target fishes (threespine and brook sticklebacks and bridgelip and white suckers) are tabulated in Table 5. The 96-hour selectivity and safety indices of selected species of salmonids versus the threespine stickleback are tabulated in Table 7.

sucker and stickleback [3] = conditions: in vivo
steelhead trout = conditions: in vivo
threespine stickleback [4] = test system: threespine stickleback; set-up: species or system Gasterosteus aculeatus; conditions: in vivo
chinook salmon = conditions: in vivo
in vivo = conditions: chinook salmon
threespine stickleback [5] = test system: threespine stickleback; set-up: species or system Gasterosteus aculeatus; conditions: in vivo, 5760 min
sucker and stickleback [6] = conditions: cited from earlier work
carp = conditions: used in ponds; cited from earlier work
[7] = published literature; cited from earlier work

## CCOP(=O)(OCC)OC(Cl)CCl (stereo not shown) [1,2-dichloroethyl diethyl phosphate]
Bridgelip sucker [1]
  activity and selectivity of the two chemicals: very similar
  concentration of 100% mortality of sucker: 0.1 mg/L
  concentration of almost 100% mortality of sucker: 0.3 mg/L
Bridgelip sucker [2]
  safety index: 10
  selectivity index: 35
Sucker and stickleback [3]
  selectivity/specificity for sucker and stickleback: extremely selective for suckers and stickleback
Steelhead trout
  concentration below which almost no mortality occurred in trout: below 3.0 mg/l
  concentration below which no mortality occurred in steelhead: below 5.0 mg/l
salmonids; in vivo
  harm to salmonids: harmless to salmonids

## CCOP(=O)(OCC)OC(Cl)=C(Cl)Cl [2,2,1-trichlorovinyl diethyl phosphate]
Threespine stickleback [4]
  LC50: 0.008 µg/mL
  LC100: ~11 µg/L
  toxicity to stickleback: almost as toxic to stickleback as 2,2,2,1-tetrachloroethyl diethyl phosphate
Sucker and stickleback [3]
  activity relative to the dichloro-compounds: about 100 times
Chinook salmon; chinook salmon
  LC0: about 16 μg/l
In vivo
  LC50: 0.018 to 0.02 µg/mL

## CCOP(=O)(OCC)OC(=C(Cl)Cl)P(=O)(OCC)OCC [2,2-dichloro-1-diethyl phosphonovinyl diethyl phosphate]
Threespine stickleback [4]
  LC50: 0.008 µg/mL
Threespine stickleback [5]
  Safety index (LC0/LC100): 0.9
In vivo
  LC50: 0.018 to 0.02 µg/mL

## COP(=O)(OC)OC=C(Cl)Cl [O,O-dimethyl O-(2,2-dichlorovinyl) phosphate]
Sucker and stickleback [6]; in vivo
  selectivity for stickleback or suckers: no selectivity for stickleback or suckers
carp
  injury to carp: without injuring carp
[7]
  carcinogenicity / residues: none suggest that DDVP is a carcinogen or concentrates residues

## O=C(O)C(Cl)Cl [dichloroacetic acid, reference compound]
Chinook salmon
  mortality: suffered no mortalities

## C=C(C)[C@H]1Cc2c(ccc3c2O[C@@H]2COc4cc(OC)c(OC)cc4[C@@H]2C3=O)O1 [rotenone]
Sucker and stickleback [6]; background
  control of sucker and stickleback numbers by spot poisoning: ineffective in controlling sucker and stickleback numbers

## O,O-diethyl S-(2,2-dichlorovinyl) thiophosphate
Bridgelip sucker [1]
  activity and selectivity of the two chemicals: very similar
  concentration of 100% mortality of sucker: 0.1 mg/L
Sucker and stickleback [3]
  selectivity/specificity for sucker and stickleback: extremely selective for suckers and stickleback
Steelhead trout
  concentration below which no mortality occurred in steelhead: below 1.0 mg/l
salmonids; 24-hour bioassays, about 15 C
  harm to salmonids: harmless to salmonids
